One assay addresses human cathepsin S (Homo sapiens (Human), UniProt P25774). The assay can be described thus: Human cathepsin S inhibition. In kind it is biochemical. To be noted: pH 5.5, 25° C., 10% DMSO. The procedure:
Cruzain inhibitors were added at seven concentrations and one fixed concentration of Cbz-Phe-Arg-AMC, and time courses of AMC formation were analyzed as with cruzain.

The next assay addresses human cathepsin L (Homo sapiens (Human), UniProt P07711). The assay can be described thus: Human cathepsin L inhibition, Z-FR-AMC assay. In kind it is biochemical. The conditions noted are these: for Ki: pH 5.5, 25° C. The method, boiled down: (§1)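 Recombinant human enzymes were assayed at 25°C in sodium acetate pH 5.5 with 1 mM CHAPS, 1 mM EDTA, 5 mM DTT and 10% DMSO final, using the fluorogenic substrate Z-FR-AMC. AMC release (ex 360/em 460 nm) was followed over 30–60 min and converted to rates (μM/s) via an AMC standard curve.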

In a further assay the target is human cathepsin B (Homo sapiens (Human), UniProt P07858). The experiment in a line: Human cathepsin B inhibition, Z-FR-AMC assay. The format is biochemical. The conditions noted are these: pH 5.5, 25° C. In a few lines:
as §1

Assay [1] concerns T. cruzi epimastigotes (strain Y). The assay can be described thus: Growth of axenic cultures of T. cruzi epimastigotes.
Experimental: Selected cruzain inhibitors in axenic cell cultures of Trypanosoma brucei brucei (procyclic trypomastigotes; ATCC PRA-381) and Trypanosoma cruzi (epimastigote forms; strain Y, ATCC 50832GFP) were tested. T. b. brucei is grown in SDM-79 medium, and T. cruzi is grown in ATCC medium (1029 LIT medium). Both media included fetal calf serum (10%) and penicillin/streptomycin (50 U/mL). […] T. brucei and T. cruzi (5 mL in flask cultures) at 26° C. were seeded at ˜3×10^6 cells, and diluted daily maintaining a mid-log growth phase for up to 100 hrs. Cell counts were scored using a Z2 Coulter Counter. After each cell dilution, fresh compound or an equal volume of DMSO (control samples), was supplemented into the cultures. […] Cruzain inhibitors where the highest concentration reflects the upper limit of solubilities of the inhibitors in 1% (v/v) DMSO solutions were evaluated. These inhibitors are likely to bind to proteins in fetal calf serum, and for these reasons, fresh inhibitors were added each time cells were re-fed.
Selected cruzain inhibitors were evaluated in axenic cell cultures of T. b. brucei and T. cruzi. Procyclic trypomastigotes of T. b. brucei (ATCC PRA-381) were grown in the SDM-79 medium at 26° C., and bloodstream forms (ATCC PRA-383) were grown at 37° C. in the HMI-9 medium at 5% C02. T. cruzi (epimastigote forms, strain Y, ATCC 50832GFP) was grown in the ATCC medium (1029 LIT medium). Both forms of T. b. brucei and T. cruzi were grown in media containing 10% fetal bovine serum (FBS) and penicillin/streptomycin (50 U mL^−1). […] Control samples contained equal amounts of DMSO. T. b. brucei and T. cruzi (5 mL in flask cultures) were seeded at ˜3×10^6 cells and diluted daily, maintaining a mid-log growth phase for up to 120 h. […] After each cell dilution, fresh compound or an equal volume of DMSO (control samples) was supplemented into the cultures, while maintaining a constant concentration of each inhibitor. Cell counts were scored using a Z2 Coulter Counter.
A short description of assay [2]: Thiolation of inhibitors with glutathione, LCMS. In kind it is physicochemical. The conditions noted are these: for Rate of Thiolation, k: 1 mM glutathione, 0.5 mM compound, Tris pH 8.0, 10% DMSO, room temperature. The procedure: Samples were analyzed by HPLC-MS (as described above) by injecting 0.01 mL aliquots onto a Luna […] C18(2) 100 Å, 4.6 mm, 50 mm column (Phenomenex) using the HPLC method described in the chemistry section at 0-6 h time points. […] Integration of the chromatographic peaks of the inhibitors and their GSH adducts at each time point was used to determine the rate of GSH adduct formation.

A further assay addresses cruzain (Trypanosoma cruzi, UniProt P25779). The assay can be described thus: biochemical. The method, boiled down:
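Fluorogenic assay at 25 °C following AMC release (ex 360/em 460 nm), with typically 0.2 nM cruzain and 10% DMSO, at pH 7.5 or 5.5 buffer with 5 mM DTT.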

For assay [3], the system named is T. b. brucei bloodstream forms. The assay can be described thus: Growth of axenic cultures of T. b. brucei bloodstream forms (BSFs).
Assay [4] concerns T. b. brucei procyclic forms. The experiment in a line: Growth of axenic cultures of T. b. brucei procyclic forms (PCFs). The format is cell-based, Trypanosoma brucei brucei. The conditions noted are these: axenic culture; read-out: EC50 T. b. brucei PCF.
[5] abbreviates: 10% DMSO, read-out: Ki* Human Cathepsin L.
The mark [6] stands for this setting: 10% DMSO, read-out: Ki* Human Cathepsin B.
Setting [7] is: Ki* Cruzain, obtained >10 minutes following initiation of reaction by addition of enzyme, pH 7.5.
Where [8] appears, read: apparent initial inhibition constant, 25° C., pH 7.5, read-out: Ki.
[9] abbreviates: apparent tight-binding inhibition constant, 25° C., pH 7.5, read-out: Ki*.
[10] abbreviates: conversion of EI* back to EI, from kobs replot or recovery after preincubation and dilution.
Setting [11] is: read-out: T. cruzi axenic culture EC50, epimastigotes.
The mark [12] stands for this setting: read-out: EC50 T. b. brucei BSF, axenic culture.
Where [13] appears, read: obtained >10 minutes following initiation of reaction by addition of enzyme, pH 7.5, read-out: Ki* Cruzain.

Structures are written as SMILES. Several values for one entry are separate records, joined by “and”; a condition that tells them apart may be missing. Equal entries are not always repeated. Where two headings read alike, the source gives them in different places.

Data on five molecules can be found in patent US20240150396A1 (The Texas A&M University System, priority 2021, published 2024).

cruzain, sequence (P25779 123-467 limits assumed): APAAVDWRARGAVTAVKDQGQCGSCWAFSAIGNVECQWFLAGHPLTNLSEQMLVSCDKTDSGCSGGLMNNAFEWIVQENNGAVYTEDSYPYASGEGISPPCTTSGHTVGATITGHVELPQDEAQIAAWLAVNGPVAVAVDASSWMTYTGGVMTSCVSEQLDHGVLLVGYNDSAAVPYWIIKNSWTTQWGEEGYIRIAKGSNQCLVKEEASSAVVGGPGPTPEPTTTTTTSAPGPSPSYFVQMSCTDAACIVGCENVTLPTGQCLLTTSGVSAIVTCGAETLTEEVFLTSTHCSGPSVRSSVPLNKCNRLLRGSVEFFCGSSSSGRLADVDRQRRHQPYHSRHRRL
human cathepsin L, sequence (P07711 114-333): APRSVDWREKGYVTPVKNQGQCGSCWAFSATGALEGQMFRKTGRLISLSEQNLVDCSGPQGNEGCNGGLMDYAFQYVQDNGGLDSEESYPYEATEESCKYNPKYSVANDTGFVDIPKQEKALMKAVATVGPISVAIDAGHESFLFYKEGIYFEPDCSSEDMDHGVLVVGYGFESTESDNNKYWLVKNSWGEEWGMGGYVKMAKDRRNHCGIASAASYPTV
human cathepsin S, sequence (P25774 115-331): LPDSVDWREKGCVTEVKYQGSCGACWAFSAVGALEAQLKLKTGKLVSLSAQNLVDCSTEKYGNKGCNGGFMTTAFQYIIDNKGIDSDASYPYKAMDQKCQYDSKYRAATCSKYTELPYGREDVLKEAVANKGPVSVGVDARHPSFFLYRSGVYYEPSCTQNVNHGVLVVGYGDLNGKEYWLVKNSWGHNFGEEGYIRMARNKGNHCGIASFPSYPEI

In the case of `O=C(N[C@@H](Cc1ccccc1)C(=O)N[C@H](/C=C/c1ccccn1)Cc1ccccc1)OCc1ccccc1` [Compound 11, Benzyl ((S)-1-Oxo-3-phenyl-1-(((S,E)-1-phenyl-4-(pyridin-2-yl)-but-3-en-2-yl)amino)propan-2-yl)carbamate], the Ki is 1.8 ± 0.3 µM at human cathepsin S; 4.3 ± 0.5 µM on human cathepsin L (setting [5]); 28 ± 4 µM on human cathepsin B (setting [6]); 0.12 to 0.4 µM on cruzain (setting [7]); 5.5 ± 0.4 µM on cruzain (setting [8]); 0.31 µM at cruzain (setting [9]). Moreover, the EC50 in assay [1] (Trypanosoma cruzi, read-out: T. cruzi axenic culture EC50, epimastigotes) is greater than 20 µM. In addition, in assay [1] (epimastigotes), the “T. cruzi axenic culture EC50” value is “poorly effective”. In addition, the “Rate of Thiolation, k” value in assay [2] was “Negligible”. Further, on cruzain (setting [10]), the k4 was 0.0012 ± 0.0002 s⁻¹.
Regarding `C[n+]1ccccc1/C=C/[C@H](Cc1ccccc1)NC(=O)[C@H](Cc1ccccc1)NC(=O)OCc1ccccc1.[I-]` [Compound 12, 2-((S,E)-3-((S)-2-(((Benzyloxy)carbonyl)amino)-3-phenylpropanamido)-4-phenylbut-1-en-1-yl)-1-methylpyridin-1-ium Iodide], the Ki on human cathepsin S was 0.87 ± 0.07 µM; at human cathepsin L (setting [5]), 0.7 ± 0.04 µM; at human cathepsin B (setting [6]), 19 ± 4 µM; on cruzain (setting [7]), 0.12 to 0.4 µM; on cruzain (Ki*, apparent tight-binding inhibition constant, 25° C., pH 7.5) it was 0.12 µM; at cruzain (setting [8]) it was 3.8 ± 0.4 µM. For the same molecule, the Ki on cruzain (setting [9]) is 0.28 ± 0.08 µM. The EC50 in assay [3] (Trypanosoma brucei, read-out: EC50 T. b. brucei BSF, axenic culture) was found to be 6.6 ± 0.6 µM. The “apparent rate of GSH addition relative to K11777” value in assay [2] is 8 fold. Moreover, the “Rate of Thiolation, k” value in assay [2] is 0.617 ± 0.033 M⁻¹ s⁻¹.
With `C[n+]1ccccc1/C=C/[C@H](CCc1ccccc1)NC(=O)[C@H](Cc1ccccc1)NC(=O)OCc1ccccc1` [Compound 15, 2-((S,E)-3-((S)-2-(((Benzyloxy)carbonyl)amino)-3-phenylpropanamido)-5-phenylpent-1-en-1-yl)-1-methylpyridin-1-ium], the Ki at human cathepsin S was 0.32 ± 0.04 µM; at human cathepsin L (setting [5]) it was 0.88 ± 0.06 µM; on human cathepsin B (setting [6]), 37 ± 6 µM; at cruzain (setting [8]), 0.76 ± 0.04 µM; at cruzain (setting [9]), 0.126 µM; at cruzain (calculated from global fitting to eq 6, read-out: Ki*) it was 0.6 ± 0.2 µM. For the same molecule, the Ki on cruzain (global fitting to eq 6, read-out: Ki) is 4.3 ± 0.1 µM; on cruzain (setting [13]), 0.12 to 0.4 µM; on cruzain (pH 5.5, 25° C., 10% DMSO, read-out: Ki* Cruzain), 0.088 ± 0.002 µM; at cruzain (pH 5.5, read-out: Ki* Cruzain) it was 0.088 µM; at cruzain (replot of kobs vs inhibitor, fitting to eq 4, read-out: Ki), 2 ± 0.9 µM. Further, the EC50 is 2 to 20 µM and 2.1 µM in assay [1] (setting [11]); 2.8 ± 0.1 µM in assay [3] (setting [12]); 5 to 15 µM and 5.9 µM in assay [4]. In addition, the “apparent rate of GSH addition relative to K11777” value in assay [2] is on record as 8 fold. In assay [2], the “Rate of Thiolation, k” value is 0.9 ± 0.067 M⁻¹ s⁻¹. Moreover, the figures for the k4 result on cruzain (setting [10]) and at cruzain (global fitting to eq 6) were “≈ 0 s^−1” and 0.00019 ± 0.00005 s⁻¹, respectively. The values for the k3 on cruzain (fitting to eq 4) and at cruzain (global fitting to eq 6) were 0.004 ± 0.001 s⁻¹ and 0.0012 ± 0.0004 s⁻¹, respectively. Besides, the “Ki lower than the values with the three human cathepsins” value on cruzain (pH 5.5) is given as “over 10 fold”.
For the molecule `O=C(N[C@@H](Cc1ccccc1)C(=O)N[C@H]1Cc2ccccc2OC1O)OCc1ccccc1` (stereo partly shown) [Compound 30], at human cathepsin L, the “selectivity for cruzain vs human cathepsin L and S” value is listed as “more than 10 fold”. The results for the Ki at human cathepsin L (read-out: Ki* hCatL), at human cathepsin B (read-out: Ki* hCatB) and on cruzain (setting [13]) were 0.028 ± 0.0009 µM, 4.5 ± 0.1 µM and 0.049 µM, respectively. Also, the EC50 in assay [1] (setting [11]) is 2 to 20 µM; in assay [3] (setting [12]) it was 6.8 ± 1.1 µM; in assay [4], 17 µM. In addition, the “ratio of Ki* of SMAI to Ki* of its free aldehyde” value at cruzain is 110.
Consider `CN1CCN(C(=O)NC(Cc2ccccc2)C(=O)NC2Cc3ccccc3OC2O)CC1` (stereo not shown) [Compound 36], for which the Ki at human cathepsin L (read-out: Ki* hCatL) was found to be 0.02 ± 0.0009 µM; at human cathepsin B (read-out: Ki* hCatB), 1.27 ± 0.07 µM; at cruzain (setting [13]), 0.047 µM. Moreover, the EC50 was found to be 0.54 µM in assay [1] (setting [11]), 0.6 µM in assay [3] (setting [12]) and 4 µM in assay [4]. Further, the “ratio of Ki* of SMAI to Ki* of its free aldehyde” value on cruzain is recorded as 94. For the same molecule, at cruzain (setting [10]), the k4 result is given as “(1.8±0.7)×10^−4 s^−1”. Besides, the “residence time τ” value on cruzain (preincubation, dilution, recovery of cruzain activity) is 26 min.

By EC50 is commonly meant the midpoint of the concentration-response curve.
